Laboratory results published in patent publication US20050244490A1, “Dosing methods for beta-D-2',3'-dideoxy-2',3'-didehydro-5-fluorocytidine antiviral therapy” (priority 2003, published 2005).
Like-named read-outs stand apart in the source and are kept apart here.

Tests used:
clinical [1] = conditions: in vivo
[2] = tested on: AZT/3TC-resistant HIV-1 recombinant viruses; assay: microbe, parasite or virus in culture; assay type: cell-based; conditions: Human immunodeficiency virus 1, read-out: Average IC90 for AZT/3TC-R virus
Procedure: A panel of 22 viruses was constructed in the HXB2 background using the Protease and RT sequences from clinical isolates to determine Virco Profiling against recombinant clinical isolates (see FIGS. 7a and 7b). Viruses contained 2 to 17 mutations in RT frequently associated with nucleoside resistance, including: M184V, M41L, D67N, T215Y. IC50 values were determined using a high through-put reporter virus assay.

HepG2 cells = assay: Mitochondrial toxicity testing (mitDNA, rRNA, lactic acid); assay type: cell-based; conditions: 14 days; for % Change in Lactic Acid: normalized for cytotoxicity
Procedure: HepG2 cells were incubated for 14 days with the active agent. and mitDNA and rRNA levels were determined by quantitative real-time PCR. The results are tabulated in […]

[3] = human, in vivo
DNA Pol γ = biological target: T1, DNA Pol γ (Homo sapiens, UniProt P54098); assay: Inhibition of pure DNA polymerase γ by nucleoside triphosphates; assay type: biochemical; conditions: tritiated dCTP incorporation
T1 sequence (P54098 1-1239): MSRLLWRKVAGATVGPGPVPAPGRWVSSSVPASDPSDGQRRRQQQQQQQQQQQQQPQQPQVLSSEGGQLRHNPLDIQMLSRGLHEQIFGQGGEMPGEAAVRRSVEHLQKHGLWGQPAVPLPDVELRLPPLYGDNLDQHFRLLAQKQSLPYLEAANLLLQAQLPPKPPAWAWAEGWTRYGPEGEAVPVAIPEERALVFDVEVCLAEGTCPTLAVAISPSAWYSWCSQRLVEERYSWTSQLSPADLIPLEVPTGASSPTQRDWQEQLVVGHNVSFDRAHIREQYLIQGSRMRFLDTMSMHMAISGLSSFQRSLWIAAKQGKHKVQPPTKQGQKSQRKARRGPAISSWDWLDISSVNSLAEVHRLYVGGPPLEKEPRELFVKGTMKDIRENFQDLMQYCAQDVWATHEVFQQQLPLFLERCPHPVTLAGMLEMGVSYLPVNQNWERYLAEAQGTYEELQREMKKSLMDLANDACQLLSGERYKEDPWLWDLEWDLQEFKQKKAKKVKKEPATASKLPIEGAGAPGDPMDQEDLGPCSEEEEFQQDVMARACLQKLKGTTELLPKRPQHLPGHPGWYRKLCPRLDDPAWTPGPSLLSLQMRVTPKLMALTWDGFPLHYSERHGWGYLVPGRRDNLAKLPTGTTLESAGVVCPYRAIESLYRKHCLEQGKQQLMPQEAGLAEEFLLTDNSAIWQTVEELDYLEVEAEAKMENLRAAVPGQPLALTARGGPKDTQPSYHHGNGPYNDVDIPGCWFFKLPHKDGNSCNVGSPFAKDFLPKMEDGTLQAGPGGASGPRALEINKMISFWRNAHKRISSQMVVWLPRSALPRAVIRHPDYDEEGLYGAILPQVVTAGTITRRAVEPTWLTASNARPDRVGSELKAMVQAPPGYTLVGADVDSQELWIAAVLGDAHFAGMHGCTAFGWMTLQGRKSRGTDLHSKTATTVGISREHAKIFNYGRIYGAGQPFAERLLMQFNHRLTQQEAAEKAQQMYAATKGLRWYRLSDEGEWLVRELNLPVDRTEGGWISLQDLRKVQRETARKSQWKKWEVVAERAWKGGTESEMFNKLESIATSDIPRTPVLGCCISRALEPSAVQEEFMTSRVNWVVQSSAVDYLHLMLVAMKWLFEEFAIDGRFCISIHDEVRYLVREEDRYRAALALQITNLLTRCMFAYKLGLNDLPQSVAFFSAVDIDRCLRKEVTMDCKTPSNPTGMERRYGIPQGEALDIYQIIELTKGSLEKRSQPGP
Procedure: (§1) Triphosphates of nucleosides were tested against pure polymerases using tritiated dCTP incorporation.

M184V mutant RT = M184V mutant RT (Human immunodeficiency virus type 1 group M subtype B, UniProt P04585, M771V); assay: biochemical; assay type: biochemical, HIV-1
wild type HIV-RT = biological target: T2, wild type HIV-RT (Human immunodeficiency virus type 1 group M subtype B, UniProt P04585); assay: Ki / Km for wild type HIV-RT; assay type: biochemical, HIV-1
T2 construct: The Ki value for β-D-D4FC-TP for wild type HIV-RT

DNA Pol β = DNA Pol β (Homo sapiens, UniProt P06746); assay: Inhibition of pure DNA polymerase β by nucleoside triphosphates; assay type: biochemical; conditions: tritiated dCTP incorporation
Procedure: as §1

HIV RT = biological target: T3, HIV RT (Human immunodeficiency virus type 1 group M subtype B, UniProt P04585); assay: Inhibition of purified HIV-1 reverse transcriptase by nucleoside triphosphates (tritiated dCTP incorporation); assay type: biochemical; conditions: pure polymerase, tritiated dCTP incorporation; read-out: IC50
T3 construct: purified HIV-1 reverse transcriptase (RT)
Procedure: An assay was performed to determine the ability of β-D-D4FC-triphosphate to terminate polymerization catalyzed by purified HIV-1 reverse transcriptase (RT). […] The target concentration is that concentration where most mutant variants tested are suppressed by 90% or more. The concentration of 5 μM is the target plasma concentration as most, mutant variants tested were suppressed ≧90% in vitro.
as §1

clinical [4] = conditions: male, human, in vivo
Procedure: Total of 18 HIV-1 infected males, aged 18-55 years, enrolled, 6 per treatment cohort.
In Cohort 3, subjects received either 100 mg, or 200 mg, or placebo.
The data was analyzed using non-compartmental and two-compartmental models.
HIV RNA levels were also determined using quantitative real-time RT-PCR.
Plasma HIV-1 RNA levels were measured by quantitative reverse transcriptase-polymerase chain reaction (Q-RT-PCR) essentially as described by Stuyver, L. J. et al., “Antiviral activity and cellular toxicity of modified 2′,3′-dideoxy-2′,3′-didehydrocytidine analogues” Antimicrob Agents Chemother.

HIV viral load = conditions: cited from earlier work
[5] = pbmc
[6] = tested on: acutely HIV-1 infected human PBM cells; assay: Median effect / combination index study with Racivir; assay type: cell-based; conditions: Human immunodeficiency virus 1, PBMC, 120 h

With `Nc1ccn([C@@H]2CS[C@H](CO)O2)c(=O)n1` [3TC, β-L-2′,3′-dideoxy-3′-thiacytidine] the Cmax (clinical [1]) was 6.6 µM, the IC90 [2] was over 93 µM and the “% Change in mitDNA” value (HepG2 cells; 1 μM) was 0%. For the same compound, the “% Change in rRNA” value (HepG2 cells; 1 μM) was −0.3%, the “% Change in Lactic Acid” value (HepG2 cells; 1 μM) was “+23%” and the “% Change in mitDNA” value (HepG2 cells; 10 μM) was −9%. The “% Change in rRNA” value (HepG2 cells; 10 μM) was −0%, the “% Change in Lactic Acid” value (HepG2 cells; 10 μM) was “+5%” and the “Intracellular [Nuc-PPP] in patients” value [3] was 6 to 10 µM.

For `Nc1ccn([C@@H]2CS[C@H](COP(=O)(O)OP(=O)(O)OP(=O)(O)O)O2)c(=O)n1` [3TC-TP], the IC50 (DNA Pol γ) was 43.1 µM, the Ki (M184V mutant RT; read-out: Ki M184V) was 85 µM and the Ki (wild type HIV-RT; read-out: Ki WT) was 0.95 µM. The IC50 (DNA Pol β) was 10.3 µM and the IC50 (HIV RT) was 0.57 µM.

For `Nc1nc(=O)[nH]cc1F` [5FC, 5-fluorocytosine], the AUC (clinical [4]; 10 mg) was 0.39 ± 0.26 µM·h, the “AUC(0-τ)” value (clinical [4]; 10 mg) was 136 ± 14 ng·h/mL and the “AUC(0-∞)” value (clinical [4]; 10 mg) was 149 ng·h/mL. For the same compound, the CLr (clinical [4]; 10 mg) was 1.39 L/h, the CLtot/F (clinical [4]; 10 mg) was 67 957 mL/h and the “T ½” value (clinical [4]; 10 mg) was 6.4 ± 4.2 h. The Tmax (clinical [4]; 10 mg) was 1.0 ± 0.3 h, the “t1/2 λz” value (clinical [4]; 10 mg) was 2.41 h and the tmax (clinical [4]; 10 mg) was 1.08 h. For the same compound, the AUC (clinical [4]; 25 mg) was 1.52 ± 0.87 µM·h, the “AUC(0-τ)” value (clinical [4]; 25 mg) was 234 ng·h/mL and the “AUC(0-∞)” value (clinical [4]; 25 mg) was 250 ng·h/mL. The CLr (clinical [4]; 25 mg) was 1.27 L/h, the CLtot/F (clinical [4]; 25 mg) was 115 262 mL/h and the “T ½” value (clinical [4]; 25 mg) was 9.5 ± 5.2 h. The Tmax (clinical [4]; 25 mg) was 1.8 ± 0.9 h, the “t1/2 λz” value (clinical [4]; 25 mg) was 4.60 h and the tmax (clinical [4]; 25 mg) was 1.33 h. For the same compound, the AUC (clinical [4]; 100 mg) was 1.93 ± 0.68 µM·h, the “AUC(0-τ)” value (clinical [4]; 100 mg) was 309 ng·h/mL and the “AUC(0-∞)” value (clinical [4]; 100 mg) was 340 ng·h/mL. For the same compound, the CLr (clinical [4]; 100 mg) was 10.26 L/h, the CLtot/F (clinical [4]; 100 mg) was 307 932 mL/h and the “T ½” value (clinical [4]; 100 mg) was 18.6 ± 10.1 h. The Tmax (clinical [4]; 100 mg) was 3.7 ± 0.8 h, the “t1/2 λz” value (clinical [4]; 100 mg) was 8.50 h and the tmax (clinical [4]; 100 mg) was 3.67 h. For the same compound, the AUC (clinical [4]; 200 mg) was 14.43 ± 13.12 µM·h, the “AUC(0-τ)” value (clinical [4]; 200 mg) was 1,665 ng · h/mL and the “AUC(0-∞)” value (clinical [4]; 200 mg) was 1,887 ng · h/mL. For the same compound, the CLr (clinical [4]; 200 mg) was 4.60 L/h, the CLtot/F (clinical [4]; 200 mg) was 169 692 mL/h and the “T ½” value (clinical [4]; 200 mg) was 11.2 ± 7.1 h. For the same compound, the Tmax (clinical [4]; 200 mg) was 3.3 ± 3.2 h, the “t1/2 λz” value (clinical [4]; 200 mg) was 10.48 h and the tmax (clinical [4]; 200 mg) was 3.33 h.

For `Nc1nc(NC2CC2)c2ncn([C@H]3C=C[C@@H](CO)C3)c2n1` [ABC, (1S,4R)-4-[2-amino-6-cyclopropyl-amino)-9H-purin-9-yl]-2-cyclopentene-1-methanol succinate], the “Viral Load Decline (log)” value (HIV viral load; 600 mg BD, duration of dosing 7) is listed as −1.00 log.

For `Cc1cn([C@H]2C[C@H](N=[N+]=[N-])[C@@H](CO)O2)c(=O)[nH]c1=O` [AZT, 3′-deoxy-3′-azido-thymidine], the “Viral Load Decline (log)” value (HIV viral load; 300 mg BD, duration of dosing 14) is given as −0.6 log.

With `Cc1cn([C@H]2C=C[C@@H](CO)O2)c(=O)[nH]c1=O` [D4T, 2′,3′-didehydro-2′,3′-dideoxythymidine] the Intracellular half life [5] was 3.5 h, the Cmax (clinical [1]) was 2.7 µM and the half-life (clinical [1]) was 1.7 h. For the same compound, the Ki (M184V mutant RT) was 3 µM, the Ki (wild type HIV-RT) was 0.05 to 0.3 µM and the IC90 [2] was 6.8 µM. The EC50 [6] was 0.05 µM, the EC90 [6] was 0.35 µM and the “Intracellular [Nuc-PPP] in patients” value [3] was 0.05 µM.

In the case of `Nc1nc(N)c2ncn([C@H]3CO[C@@H](CO)O3)c2n1` [DAPD, β-D-dioxolanyl-2,6-diaminopurine], the “Viral Load Decline (log)” value (HIV viral load; 300 mg BD, duration of dosing 14, add-on study in experienced patients) is given as −1.5 log.

For `Cc1cn([C@H]2C[C@H](F)[C@@H](CO)O2)c(=O)[nH]c1=O` [FLT], the “Viral Load Decline (log)” value (HIV viral load; 7.5 mg QD, duration of dosing 28, add-on study in experienced patients) is listed as −1.88 log.
